Measurements published in patent US9925240B2, “Methods of treating and preventing cancer drug resistance” (Genentech, Inc., priority 2013, dated 2018).

Columns and labels:
[1] = system: HCC4006 cells; assay: Clonogenic assay (crystal violet) in HCC4006 cells; assay type: cell-based; conditions: erlotinib 1 μM plus PD173074 0.5 μM, continuous treatment, stained at 6 weeks
Description: 10^5 cells were plated in 10 cm^2 plate. 24 hours after plating, media was removed and replaced with media containing indicated drugs. Fresh media was replaced every 3 to 4 days until cells reached confluence (4 weeks) or 6 weeks to stop culture. Media was removed, cells were washed with PBS, then stained with 0.5% crystal violet for 20 minutes at room temperature. Dye was removed, cell monolayers were washed with water, dry the plate and take a picture as record.

[2] = system: HCC4006-ER cells; assay: Cell viability assay (CellTiter-Glo) in erlotinib-resistant HCC4006-ER cells; assay type: cell-based; conditions: for Ability to overcome resistance to erlotinib (cell viability, FIG. 3 and FIG. 5): 72 h, in combination with erlotinib
Description: 10^3 cells were plated in each well of 384-well plate. 24 hours after plating, added indicated concentration drug to each well. 72 hours after dosing, added CellTiter-Glo Reagent (CellTiter Glo Luminescent Cell Viability Assay, Promega) to each well, incubate the plate at room temperature for 10 minutes, record luminescence by EnVision 2101 Multilabel Reader (PerkinElmer).
Drug-sensitive cells (HCC4006 and HCC827) were treated with 2 uM erlotinib for 2 months. Fresh media containing 2 uM erlotinib were replaced every 3 to 4 days. Viable cells were collected as erlotinib-resistant cells.

Structure (SMILES): CCN(CC)CCCCNc1ncc2cc(-c3cc(OC)cc(OC)c3)c(NC(=O)NC(C)(C)C)nc2n1 [PD173074, N-[2-[[4-(diethylamino)butyl]amino]-6-(3,5-dimethoxyphenyl)pyrido[2,3-d]pyrimidin-7-yl]-N′-(1,1-dimethylethyl)-urea]
- Development of resistance to erlotinib (FIG. 6) [1]: can suppress the development of resistance to erlotinib
- Ability to overcome resistance to erlotinib (cell viability, FIG. 3 and FIG. 5) ([2]; HCC4006-ER cells): overcame resistance to erlotinib
- Screen of small molecule inhibitors in the presence or absence of erlotinib (growth inhibition, FIG. 8) ([2]; HCC4006-ER cells, with or without erlotinib): could reverse resistance to erlotinib

Structure (SMILES): Nc1nc(Nc2ccc3c(c2)CCC(N2CCCC2)CC3)nn1-c1cc2c(nn1)-c1ccccc1CCC2 (centres unmarked) [R428]
- Ability to overcome resistance to erlotinib (cell viability, FIG. 3 and FIG. 5) ([2]; HCC4006-ER cells): cannot overcome resistance to erlotinib

Structure (SMILES): C#Cc1cccc(Nc2ncnc3cc(OCCOC)c(OCCOC)cc23)c1 [erlotinib, N-(3-ethynylphenyl)-6,7-bis(2-methoxyethoxy)-4-quinazolinamine]
- Sensitivity of cells to erlotinib (cell viability, annexin V, FIG. 1A-C) ([2]; HCC4006-ER vs parental HCC4006, 72 h): resistant
